Experimental findings from EP0142333A2, “Glycerol derivatives” (ONO PHARMACEUTICAL CO., LTD., priority 1983, dated 1985) are described below.

pIC50: −log10 of the molar value. Counter-ions that a name gives are not always drawn.

The subject of series [1] is PAF-induced platelet aggregation. Description: Inhibitory effect on PAF-induced platelet aggregation (platelet rich plasma, Born aggregometer). The conditions noted are these: Cavia porcellus; platelet rich plasma of male guinea-pig; PAF (10nM)-induced aggregation; absorbancy method. It counts as cell-based. On the procedure: (1) Inhibitory effect on PAF-induced platelet aggregation
Whole blood of male guinea-pig was collected with a 3.8%. aqueous solution of trisodium citrate in a proportion of 9:1 (v/v) and the mixture was centrifuged for 10 minutes at room temperature (120 x g) to obtain platelet rich plasma. Using obtained plasma, PAF (10nM)-induced aggregation was determined by the absorbancy method using an aggregometer of Born (cf. J. Physiol., 162, 67 (1962)) .
The evaluation is conducted using the concentration of compounds of the present invention required to produce a 50% inhibition of each effect, i.e. IC50.

The next series has as its system mice. Nature of the series: Acute toxicity by intravenous administration. In kind it is in vivo. The conditions noted are these: intravenously administered to tail vein in mice at the dose of 50 mg/kg.

What is called pIC50 is −log10 of the IC50, conventionally taken in molar units. In series [1], `C=CCOC(COCCCCCCCCCCCCCCCC)COCCCC[N+](C)(C)C` (racemic) [Example 7, (2RS)-1-0-hexadecyl-2-0-allyl-3-0-[4-(trimethylammonio)butyl] glycerol·iodide] gave a pIC50 of 5.42.
In the case of `CCCCCCCCCCCCCCCCOCC(COCCCCCCC[N+](C)(C)C)OC` (racemic) [Example 5, (2RS)-1-0-hexcadecyl-2-0-methyl-3-0-[7-(trimethylammonio)heptyl] glycerol·methanesulfonic acid salt], the “mortality (dead/used)” value in the series with mice is reported as 0/5. In addition, the pIC50 in series [1] is 5.89.
In the case of `CCCCCCCCCCCCCCCCOCC(COCCCCCCC[N+](C)(C)C)OCC` (racemic) [5(a), (2RS)-1-0-hexadecyl-2-0-ethyl-3-0-[7-(trimethylammonio)heptyl]glycerol·methanesulfonic acid salt], the “mortality (dead/used)” value with mice was 0/5.
On the same count and under the same terms, the figure for `CCCCCCCCCCCCCCCCOCC(COCCCC[N+](C)(C)C)C(C)C` (racemic) [Example 2(b), (2RS)-l-0-hexadecyl-2-dehydroxy-2-iso-propyl-3-0-[4-(trimethylammonio)butyl]glycerol·iodide] is 2/5.
On to `CCCCCCCCCCCCCCCCOCC(CCC)COCCCC[N+](C)(C)C` (racemic) [Example 2, (2RS)-1-0-hexadecyl-2-dehydroxy-2-n-propyl-3-0-[4-(trimethylammonio)butyl]glycerol·iodide], for which the negative logarithm of the IC50 (pIC50) in series [1] was 5.28.
With `CCCCCCCCCCCCCCCCOCC(COCCCCCCC[N+](C)(C)C)OCCC` (racemic) [5(b), (2RS)-1-0-hexadecyl-2-0-n-propyl-3-0-(7-(trimethylammonio)heptyl]glycerol·methanesulfonic acid salt], the “mortality (dead/used)” value in the series on mice is listed as 0/5. In series [1], this compound gave a pIC50 of 5.74.
